Where two headings read alike, the source gives them in different places.
Assays:
[1] = biolocalization of the radionuclide in rats (tissue distribution after tail vein injection); type: in vivo, male Sprague Dawley rats; conditions: Sm-153, rats
Method: Studies to determine the qualitative biodistribution of the various radionuclides were conducted by injecting the compositions into rats and obtaining the gamma ray images of the entire animal at various times up to two hours after injection.
Laboratory rats were injected with the above complex (50-100 μl) via the tail vein. After 2 hours, the animals were sacrificed by cervical dislocation and organs and tissues removed. Samples were counted with a NaI counter to determine the biolocalization of the radionuclide.

[2] = rabbits, three hour, averaged for 5 rabbits
Method: Biolocalization studies were also performed in rabbits. The rabbits were injected with 100-250 microliters of the composition into the marginal ear vein. In studies where blood clearance was measured, blood samples were taken through a heparinized cannula placed in the marginal vein of the ear not used for injection. Three hours after injection, a blood sample was taken from each rabbit by cardiac puncture and each animal was sacrificed by injection of a commercial euthanasia solution. After sacrifice, images were obtained by placing the carcass directly on the face of a large field-of-view scintillation camera.
Whenever in the following examples and tables data is presented on the administered dose of radioactivity, the numbers given represent the percentage of the administered dose which localized in the indicated tissue. The ratios of radioactivity observed in bone relative to blood and muscle were calculated based on the percent dose per gram in the bone and in the blood and muscle. Whenever the ratios of radioactivity found in bone to that found in nonosseous tissue is given, the calculation was made as indicated above on a percent dose per gram basis.
Compositions containing Sm-153-EDTMP (compositions prepared as in Example 2) were also tested in rabbits.

[3] = test system: tumor
Method: (§1) An English Setter with a tumor in his pelvis was injected with approximately 19 mCi of a composition containing Sm-153-EDTMP. After 2 hours, the dog was imaged using a scintillation camera.
An Irish Setter with a tumor in the femur was injected with a composition containing Sm-153-EDTMP. The leg was amputated and samples of the tumor and normal bone were analyzed for Sm-153.
(§2) An Irish setter with undifferentiated sarcoma metastatic to bone was treated with 16 mCi (0.57 mCi/kg) of a composition containing Sm-153-EDTMP. […] After approximately 3 months, when signs of lameness began to reappear, the dog was given a second treatment of 15 mCi (0.49 mCi/kg), of a composition containing Sm-153-EDTMP.

[4] = test system: tumor; remark: listed apart in the source
Method: as §1, §2
A female Irish Wolfhound with a possible osteosarcoma on the left distal radius was injected with a composition containing ^166 Ho-EDTMP (0.97 mCi/kg).

[5] = test system: white blood cells and platelets; conditions: for platelet and white blood cell levels: 2-3 weeks after administration
Method: A series of normal beagles was treated with various dose levels of a composition containing Sm-153-EDTMP. White blood cell and platelet counts were measured weekly to check for signs of bone marrow supression.

[6] = for Percent Injected Dose Remaining in Whole Blood, Average: average of 5 patients
Method: (§3) Sterile pyrogen-free vials were prepared to contain 210 mg of EDTMP and 140 mg NAOH by freeze-drying a solution containing appropriate amounts of EDTMP and NAOH. The vials were sealed under vacuum. To prepare one of the compositons of the invention, 6 ml of a solution containing Sm-153 (approximately 3×10^-4 M in Sm) in 0.1M HCl was injected into the sealed vial through a septum.
Five humans with metastatic bone cancer (three with lung cancer and two with prostate cancer as the primary site) were injected with a composition containing 2 mCi of Sm-153-EDTMP. Blood samples were taken intermittently to determine the fraction of the Sm-153 remaining in the blood.

[7] = Method: as §3
Urine was collected and counted to determine the percentage of the radioactivity excreted as a function of time after injection.

[8] = test system: cancerous lesions; assay: scintigraphic imaging in humans with metastatic bone cancer; type: in vivo
Method: Scintigraphic images were obtained two hours post injection and were used for comparison with images previously obtained using Tc-99m-HDP (hydroxymethylenediphosphonate), a commercially available diagnostic bone imaging agent.
The uptake observed for each radionuclide in selected lesions compared to its uptake in normal bone was determined using digitized images.

[9] = test system: lesion / normal bone; conditions: compared with Tc-99m-MDP
Method: Thus, two holes were drilled into the surface of the tibia of a rabbit in order to damage the bone. Seven to ten days later, the animal was injected with the radionuclide composition. After three hours, the rabbit was anesthetized and imaged using an Anger camera and pinhole collimator.

[10] = humans
[11] = 2 hours, ratio of percent dose per gram, average of 5 rats
[12] = Irish setter, nine months after second treatment

## O=P([O-])(O)CN(CCN(CP(=O)([O-])O)CP(=O)(O)O)CP(=O)([O-])O.[153Sm+3] [Example 2]
[1]
  scintillation scans: the radioactivity concentrating in the skeletal system
[1]; 2 hours
  clearance of radioactivity through the kidneys into the urine: Most of the radioactivity not found in the skeleton was cleared through the kidneys into the urine
  radioactivity concentrated in the skeletal system: 55-65%
  soft tissue uptake: very little soft tissue uptake
[1]; 2 hours, average of 5 rats
  % Dose in Blood: 0.032 % Dose
  % Dose in Liver: 0.25 % Dose
  % Dose in Skeleton: 58 % Dose
  % Dose in Urine: 49 % Dose
[1]; [11]
  Bone/Blood: 1800
  Bone/Muscle: 1500
[2]
  % Dose in Blood: 0.12 % Dose
  % Dose in Bone Marrow: 0.15 % Dose
  % Dose in Liver: 0.95 % Dose
  % Dose in Skeleton: 66 % Dose
[2]; 180 min
  % Dose in Urine: 34 % Dose
[2]; ratio of percent dose per gram
  Bone/Blood: 900
  Bone/Muscle: 1200
[3]; English Setter, tumor in pelvis, approximately 19 mCi, 2 hours
  uptake of radioactivity in the area of the tumor (scintillation scan): high uptake of radioactivity in the area of the tumor
[3]; English Setter, 2 hours
  scans compared with Tc-99m-MDP: looked very similar to an earlier scan performed using Tc-99m-MDP
[3]; English Setter, compared with Tc-99m
  lesion to normal bone ratio: very similar to that for To-99m
[3]; Irish Setter, tumor in femur, same leg
  amount of Sm-153 in the tumor relative to non-lesionous bone, per gram basis: 15-20 times
[3]; Irish setter, sarcoma metastatic to bone
  scans compared with Tc-99m-MDP: very similar to scans obtained earlier using Tc-99m-MDP
[3]; Irish setter, sarcoma metastatic to bone, 16 mCi (0.57 mCi/kg)
  uptake of Sm-153 in the area of the lesion (scintillation scans): high uptake of Sm-153 in the area of the lesion
[4]; English Setter, approximately 19 mCi, seven days after treatment
  pain / mobility: appeared to be in less pain as evidenced by an increase in its mobility
[4]; Irish setter, 16 mCi (0.57 mCi/kg), seven days after treatment
  pain / mobility / lameness: appeared to be in less pain as evidenced by an increase in mobility and a decrease in lameness
[4]; Irish setter, after first treatment 16 mCi (0.57 mCi/kg)
  time until signs of lameness began to reappear: approximately 3 months
[4]; Irish setter, eight months after second treatment
  lameness and general health: no recurrence of lameness, had gained weight and appeared healthy
[4]; Irish setter, five months after second treatment
  regression of bone lesions (X-rays): significant regression of bone lesions
[4]; [12]
  death: died of kidney failure
  total necropsy: no evidence of cancer
[4]; Irish setter, second treatment 15 mCi (0.49 mCi/kg), seven days
  mobility / lameness after second treatment: general increase in mobility and decrease in lameness
[5]; 0.5 mCi Sm-153/kg
  platelet and white blood cell levels: smaller decrease in the levels of platelets and white blood cells
[5]; 0.5 mCi Sm-153/kg, few animals that fell below normal
  time to return of white cells and platelets to normal levels: 4-5 weeks
[5]; 1.0 mCi Sm-153/kg
  time to return of white cells and platelets to normal levels: 4-5 weeks
  platelet and white blood cell levels: slight decrease in both platelets and white blood cells
[6]; 5 min.
  Percent Injected Dose Remaining in Whole Blood, Average: 31.63 Percent Injected Dose
[6]; 15 min.
  Percent Injected Dose Remaining in Whole Blood, Average: 20.90 Percent Injected Dose
[6]; 30 min.
  Percent Injected Dose Remaining in Whole Blood, Average: 15.77 Percent Injected Dose
[6]; 60 min.
  Percent Injected Dose Remaining in Whole Blood, Average: 9.53 Percent Injected Dose
[6]; 120 min.
  Percent Injected Dose Remaining in Whole Blood, Average: 5.17 Percent Injected Dose
[6]; 180 min.
  Percent Injected Dose Remaining in Whole Blood, Average: 3.28 Percent Injected Dose
[6]; 240 min.
  Percent Injected Dose Remaining in Whole Blood, Average: 2.08 Percent Injected Dose
[6]; humans
  concentration of radioactivity in red cells: no significant concentration of radioactivity in red cells
  radioactivity in the plasma fraction: all of the measured activity was in the plasma fraction
[6]; humans, words
  clearance of radioactivity from the blood: the radioactivity cleared very rapidly from the blood
[7]; 1 Hr., average of 5 patients
  Percent Excretion in Urine, Average: 26.13%
[7]; 2 Hr., average of 5 patients
  Percent Excretion in Urine, Average: 7.15%
[7]; 4-8 Hr., average of 5 patients
  Percent Excretion in Urine, Average: 9.02%
[7]; 4 Hr., average of 5 patients
  Percent Excretion in Urine, Average: 10.95%
[7]; 8-12 Hr., average of 5 patients
  Percent Excretion in Urine, Average: 1.76%
[7]; 12-24 Hr., average of 5 patients
  Percent Excretion in Urine, Average: 1.07%
[7]; 24 Hr Total, average of 5 patients
  Percent Excretion in Urine, 24 Hr Total, Average: 56.09%
[7]; humans, words
  clearance of radioactivity into the urine: cleared rapidly
[8]; compared with dogs
  Sm-153 concentration in cancerous lesions: high, selective and similar to that observed in dogs
[8]; digitized images
  localization of radioactivity in lesions vs normal bone compared with Tc-99m-HDP: localization of radioactivity in the lesions to a similar extent
[8]; qualitative comparison of images
  visibility of cancerous lesions compared with Tc-99m-HDP: all cancerous lesions observable with Tc-99m-HDP are seen equally well with Sm-153-EDTMP
[8]; two hour post injection images
  retention of radioactivity in the kidneys: no observable retention of radioactivity in the kidneys
[8]; two hours post injection
  localization of Sm-153 in scintigraphic images: localized in skeletal tissue with no significant uptake and retention in non-osseous tissues
[9]
  lesion to normal bone ratio: approximately equal to that of Tc-99m-MDP
[10]; post-injection vs preinjection
  blood profiles (white blood cell, red blood cell, platelet count) and serum chemistry profiles: No significant changes
[10]; several post injection times vs preinjection
  vital signs: not significantly different than preinjection values

Reference: US5300279A, “Organic amine phosphonic acid complexes for the treatment of calcific tumors” (The Dow Chemical Company, priority 1990, dated 1994)
